Data on 1 compound can be found in ChEMBL document CHEMBL5726960, “Inhibiting neurotransmitter reuptake” (2018).

Assay [1] concerns the target Sodium-dependent noradrenaline transporter (Homo sapiens, UniProt P23975). The assay can be described thus: On the day of the experiment, the cells were removed from −80° C. or liquid nitrogen and thawed in a room temperature water bath. The cells were dilute to about 1-2E+06 with Freestyle medium. A 1 mL sample (1:2 dilution) was prepared, and the cells were counted. The cells were spun at 1100 rpm for 5 minutes, and the medium was aspirated off. The cells were resuspend in medium at 1.5E+06 cells/mL for about 60,000 cells per well. 40 μL of cells were dispensed per well in the Biocoat plates. The plates were spun at 1100 rpm for 1 minute to improve homogeneity of the cell layer and were incubated at 37° C. for a minimum of 3 hours. The class given is cell-based.

Assay [2] addresses Sodium-dependent dopamine transporter (Homo sapiens, UniProt Q01959). Put plainly: On the day of the experiment, the cells were removed from −80° C. or liquid nitrogen and thawed in a room temperature water bath. The cells were dilute to about 1-2E+06 with Freestyle medium. A 1 mL sample (1:2 dilution) was prepared, and the cells were counted. The cells were spun at 1100 rpm for 5 minutes, and the medium was aspirated off. The cells were resuspend in medium at 1.5E+06 cells/mL for about 60,000 cells per well. 40 μL of cells were dispensed per well in the Biocoat plates. […] The neurotransmitter transporter dye was prepared in AB prior to use. The class given is cell-based.

Sodium-dependent noradrenaline transporter, sequence (P23975 whole entry): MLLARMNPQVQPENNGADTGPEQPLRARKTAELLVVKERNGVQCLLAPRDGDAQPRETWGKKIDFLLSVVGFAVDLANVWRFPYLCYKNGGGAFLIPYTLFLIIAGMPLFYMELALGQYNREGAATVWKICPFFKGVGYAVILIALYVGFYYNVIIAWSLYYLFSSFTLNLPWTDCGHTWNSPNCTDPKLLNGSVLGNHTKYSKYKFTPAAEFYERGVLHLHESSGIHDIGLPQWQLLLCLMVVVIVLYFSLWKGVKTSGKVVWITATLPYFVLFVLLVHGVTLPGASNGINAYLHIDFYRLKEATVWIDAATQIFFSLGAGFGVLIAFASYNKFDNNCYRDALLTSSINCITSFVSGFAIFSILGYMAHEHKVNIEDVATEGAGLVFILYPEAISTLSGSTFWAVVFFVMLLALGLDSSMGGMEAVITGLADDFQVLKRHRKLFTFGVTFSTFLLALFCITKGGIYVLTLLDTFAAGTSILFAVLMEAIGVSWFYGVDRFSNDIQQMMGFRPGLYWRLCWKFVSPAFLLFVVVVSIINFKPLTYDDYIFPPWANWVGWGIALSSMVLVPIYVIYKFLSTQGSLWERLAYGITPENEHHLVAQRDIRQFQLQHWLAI
Sodium-dependent dopamine transporter, sequence (Q01959 whole entry): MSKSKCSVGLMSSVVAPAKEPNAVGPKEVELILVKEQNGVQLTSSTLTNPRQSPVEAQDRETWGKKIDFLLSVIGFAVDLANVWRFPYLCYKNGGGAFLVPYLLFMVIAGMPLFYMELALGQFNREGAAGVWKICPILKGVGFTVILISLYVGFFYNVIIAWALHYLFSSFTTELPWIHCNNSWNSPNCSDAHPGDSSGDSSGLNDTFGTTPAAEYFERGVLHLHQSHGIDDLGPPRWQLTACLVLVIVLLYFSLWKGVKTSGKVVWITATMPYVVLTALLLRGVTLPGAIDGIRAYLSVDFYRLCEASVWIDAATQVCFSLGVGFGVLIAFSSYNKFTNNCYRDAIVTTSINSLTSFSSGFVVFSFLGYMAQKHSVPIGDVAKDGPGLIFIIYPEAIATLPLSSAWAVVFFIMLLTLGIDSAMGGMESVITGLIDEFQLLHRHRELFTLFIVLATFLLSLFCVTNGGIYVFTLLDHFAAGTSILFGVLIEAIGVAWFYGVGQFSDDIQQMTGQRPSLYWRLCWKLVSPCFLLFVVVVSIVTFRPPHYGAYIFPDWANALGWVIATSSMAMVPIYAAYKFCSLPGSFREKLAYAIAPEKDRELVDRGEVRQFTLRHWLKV

`CNCC(c1ccc(F)c(Cl)c1)[C@H](O)c1ccccc1` (some centres not stated): the Ki (commonly the dissociation constant of the complex between target and ligand, obtained from inhibition or displacement) in assay [1] turned out to be 10.2 nM; in assay [2], 56.6 nM.
